For test [1], the system named is carbon dioxide-sensitive sensory hair of an Asian tiger mosquito. Put plainly: Evaluation of carbon dioxide response-inhibiting effect (nerve firing recording of sensory hair). The format is in vivo. Conditions: fragrance 1% in paraffin oil, 15 μL on filter paper, olfactory stimulation 1 second, nerve firings relative to paraffin oil, N=1; for pest or weed control at 1 %: Aedes albopictus, 1 s, read-out: Inhibition of carbon dioxide response (%). The method, then: (§1) Asian tiger mosquitoes grown from eggs purchased from Sumika Technoservice Corporation were used. A transparent plastic pan was filled with water to a depth of approximately 1 cm, and a filter paper on which the eggs had been deposited was put therein. The larvae were fed with tropical fish feed (TetraMin) every day. After approximately 1 week, the pupae were collected with a dropper, and transferred into a 20 mL plastic cup, and the cup was placed in a netted cage. The adults were fed with 10 mass % sucrose contained in a 25 mL plastic tube. The males and females were kept together in one cage and allowed to mate for 5 days after eclosion. After 5 days of captivity, the adults were collected with an insect aspirator and anesthetized on ice for 5 minutes, and visually sorted into males and females to collect only the females. The wings and legs were removed from each female mosquito under anesthesia, and the female mosquito was pushed onto a double-sided adhesive tape pasted on a microscope slide with the back on the tape and thus fixed thereto, and the antennae and maxillary palpi were positioned, so as to achieve the accessibility of electrodes.
A 1 mol/L aqueous solution of potassium hydroxide was injected into a 50 mL syringe, and the syringe was horizontally fixed to a magnet stand with a clamp. A tungsten wire fixed to an electrode holder was horizontally inserted into the syringe, and polished by electrolysis under microscopic observation. A current was supplied from an AC power source to the syringe through the electrode holder via crocodile clips.
The Asian tiger mosquito prepared on a microscope slide was set under a microscope, and positioned so that the antennae were at the center of the view through a ×10 objective lens. A reference electrode was inserted in the eye of the insect. A pipette for providing an olfactory stimulus was placed near the maxillary palpi, and the objective lens was replaced with a ×100 objective lens. The recording electrode was brought close to the sensory hair, and carefully inserted into the sensory hair with a micromanipulator. The peg-like shape of the carbon dioxide-sensitive sensory hair of an Asian tiger mosquito can be confirmed under microscopic observation. After insertion of the electrode into the sensory hair, the spontaneous nerve firing pattern was investigated. Carbon dioxide the concentration of which had been adjusted to 0.1% was led to an olfactory stimulation apparatus via a silicone tube to stimulate the maxillary palpi for 1 second, and the carbon dioxide response was investigated.
The concentration of each of the fragrances listed in Table 4 was adjusted to 1% with paraffin oil, and the resultant was used as a sample. On a filter paper (3 mm×50 mm) 15 μL of the sample was dropped, and the filter paper was inserted in a Pasteur pipette. The Pasteur pipette was connected to a stimulation apparatus via a plastic tube, and olfactory stimulation was performed for 1 second while the response to carbon dioxide in the air was monitored, and thus the carbon dioxide response-inhibiting effect was evaluated. The number of nerve firings in 1 second after stimulation with paraffin oil as a solvent and the number of nerve firings in 1 second after stimulation with each sample were counted, and the ratio was used for evaluation of the response-inhibiting effect (N=1). Inhibitory rate (%)=100×([number of firings after stimulation with paraffin oil−number of firings after stimulation with sample]/[[number of firings after stimulation with paraffin oil]) (Equation 2)

In test [2] the test system is female Asian tiger mosquitoes. The test can be described thus: Evaluation of inhibitory effect on seeking behavior for heat source (thermoreception-inhibiting effect). The test is classed as in vivo, Asian tiger mosquito. Conditions: fragrance 0.1% in ethanol, 50 μL on sheet on plate heater, landings counted after 30 seconds of contact, relative to ethanol only; for pest or weed control at 0.1 %: Aedes albopictus, 0.5 min, read-out: Inhibitory rate for seeking for heat source (%). As for the experimental part: (1) Preparation of Asian Tiger Mosquitoes
as §1, with “10% by” for “10”, “mass” for “mass %”, “females.” for “females. The wings and legs were removed from each female mosquito under anesthesia, and the female mosquito was pushed onto a double-sided adhesive tape pasted on a microscope slide with the back on the tape and thus fixed thereto, and the antennae and maxillary palpi were positioned, so as to achieve the accessibility of electrodes.”
(2) Evaluation of Inhibitory Effect on Seeking Behavior for Heat Source
Approximately 150 to 200 female Asian tiger mosquitoes were transferred in a plastic cage (30×30×30 cm). To monitor the behavior of the female mosquitoes from the top of the plastic cage, the top surface of the cage was replaced with an acrylic plate. A plate heater (multi-panel heater 16 W for small animals, manufactured by Vivaria) as a heat source was provided at a corner of the cage from the outside of the mesh with an area of 5×3 cm exposed. To take a photograph of the heat source from the top surface in experiment, a video camera (manufactured by Sony Corporation) was disposed above the top surface. A sheet for application of a sample was fixed to the heat source with a double-sided adhesive tape.
The concentration of a fragrance listed in Table 1 was adjusted to 0.1% with ethanol to prepare a sample, and 50 μL of the sample or ethanol as a solvent was administered in experiment. To activate the female mosquitoes, 1% of carbon dioxide was administered from the top for 1 second, and then the heat source was brought into contact with the cage. After 30 seconds of contact, a photograph of the heat source was taken to count the number of mosquitoes attracted. The sheet used for the heat source was discarded and replaced with another sheet every time the assay was completed. In view of the influence of a sample on the mosquitoes, the number of evaluations performed for one cage was limited to (7 samples+1 control) at a maximum. The inhibitory rate relative to the number of landings with application of ethanol solvent only was calculated for one set of assays (7 samples+1 control) to determine the inhibitory effect by using the following equation. Inhibitory rate (%)=100×(1−[number of landings with application of sample]/[number of landings with application of ethanol]) (Equation 1)

The test system of test [3] is Adult Asian tiger mosquitoes. The test can be described thus: Evaluation of inhibition of seeking behavior for human arm (landings on gloved hand). The test is classed as in vivo, Asian tiger mosquito. Conditions: for Total landing rate (%) / Number of landings total: sample 0.4% in ethanol on cotton-gloved hand; for Total landing rate (%): relative to number of landings with control sample (ethanol) as 100%; for Number of landings total: sum total of 1, 2 and 3 minutes; for Number of landings 1 min / Number of landings 2 min / Number of landings 3 min: sample 0.4% in ethanol, sprayed 14 times (0.6 g) on cotton-gloved hand; for Number of landings 1 min: after 1 minute; for Number of landings 2 min: after 2 minutes; for Number of landings 3 min: after 3 minutes. The text has this: Adult Asian tiger mosquitoes consisting of 220 females and 80 males each at 5 to 10 day old were purchased from Sumika Technoservice Corporation, and released in a 30 cm×30 cm×30 cm plastic cage (bug dorm).
The concentration of each of 2,4-dimethylcyclohex-3-ene-1-methanol (“floralol”, IFF Inc.) and octahydro-7-methyl-1,4-methanonaphthalen-6(2H)-one (“PLICATONE”, Firmenich SA) as evaluation samples was adjusted to 0.4% with ethanol. A sample containing only ethanol was used as a control.
Each of the evaluation samples and control sample was sprayed 14 times in total (0.6 g) to both sides of a hand wearing a 100% cotton glove doubly.
After application of the sample, the gloved hand was left to stand for 1 minute to volatilize ethanol, and the gloved hand with the sample applied thereto was then put in the plastic cage, and the number of mosquitoes which landed on the glove was counted every 1 minute.
The numbers of landings after 1 minute, 2 minutes, and 3 minutes, and the sum total of them were counted, and the landing rate relative to the number of landings with application of the control sample as 100% was calculated. This experiment was repeated three times.

Turning to `Cc1csc(C(C)C)n1` [2-Isopropyl-4-methylthiazol, 2-isopropyl-4-methylthiazol], in test [1], the pest or weed control at 1 % turned out to be 71%.

As for `CCOC(=O)C(C)C1CCCCC1` (centres unmarked) [Ethyl 2-cyclohexylpropionate, ethyl 2-cyclohexylpropionate], in test [1], the pest or weed control at 1 % is 48%.

For `O=CCOc1ccccc1` [Phenoxyacetaldehyde, phenoxyacetaldehyde], the pest or weed control at 0.1 % in test [2] was found to be 89%.

`CC/C=C\CCOC(C)=O` [cis-3-Hexenyl acetate, cis-3-hexenyl acetate]: in test [1], the pest or weed control at 1 % amounted to 50%.

As for `CC=C1CC2CC1C1CCC(=O)OC21` (centres unmarked) [9-ethylidene-3-oxatricyclo(6.2.1.0^2,7)undecan-4-one], the pest or weed control at 0.1 % in test [2] amounted to 85.9%.

For the molecule `CCCC1CC(=O)C=C(C)C1` (centres unmarked) [3-Methyl-5-propyl-2-cyclohexen-1-one, 3-methyl-5-propyl-2-cyclohexen-1-one], in test [2], the pest or weed control at 0.1 % came out at 97.2%.

Turning to `Cc1ccc2ncccc2c1` [6-Methylquinoline, 6-methylquinoline], in test [2], the pest or weed control at 0.1 % is 64.7%.

On to `CCCCC1CCC(=O)O1` (centres unmarked) [γ-Octalactone, γ-octalactone], for which the “Inhibitory rate for seeking for heat source (%)” value in test [2] was determined as 87.4%.

Regarding `COC1CC2CC1C1CC(C=O)CC21` (centres unmarked) [octahydro-5-methoxy-4,7-methano-1H-indene-2-carboxaldehyde], the pest or weed control at 0.1 % in test [2] is 89.2%.

Turning to `CC(=O)OC1CCCCC1C(C)(C)C` (centres unmarked) [o-tert-Butylcyclohexyl acetate, o-tert-butylcyclohexyl acetate], in test [1], the pest or weed control at 1 % worked out at 87%.

In the case of `CC1=C(C=O)C(C)(C)CC=C1` [2,6,6-trimethylcyclohexa-1,3-diene-1-carbaldehyde], the pest or weed control at 0.1 % in test [2] came to 91.7%.

Take `Cc1ncsc1CCO` [4-Methyl-5-thiazoleethanol, 4-methyl-5-thiazoleethanol]: the pest or weed control at 0.1 % in test [2] was 74.5%.

In the case of `C=CC(O)CCCCC` (centres unmarked) [1-Octen-3-ol, 1-octen-3-ol], the pest or weed control at 1 % in test [1] worked out at 55%.

`CC1=CC(C)C(CO)CC1` (centres unmarked) [2,4-Dimethylcyclohex-3-ene-1-methanol, 2,4-dimethylcyclohex-3-ene-1-methanol]: the pest or weed control at 1 % in test [1] amounted to 67%. In test [3], the “Total landing rate (%)” value is 71.1%, the “Number of landings total” value is recorded as 16, the “Number of landings 1 min” value turned out to be 3 and the “Number of landings 2 min” value amounted to 6. Also, the “Number of landings 3 min” value in test [3] is listed as 7.

Regarding `CCC/C=C/COC(C)=O` [trans-2-Hexenyl acetate, trans-2-hexenyl acetate], the pest or weed control at 1 % in test [1] came to 48%.

For `CCC(=O)OCc1ccccc1` [Benzyl propionate, benzyl propionate], the pest or weed control at 1 % in test [1] was determined as 97%.

For `CCCCCCCCO` [1-Octanol, 1-octanol], in test [1], the pest or weed control at 1 % is 97%.

With `C=CCCCCCCCCO` [9-Decen-1-ol, 9-decen-1-ol], the pest or weed control at 1 % in test [1] stood at 56%.

For the molecule `CC1CC2C3CCC(C3)C2CC1=O` (centres unmarked) [octahydro-7-methyl-1,4-methanonaphthalen-6(2H)-one], the pest or weed control at 0.1 % in test [2] amounted to 81.3%. Besides, in test [3], the “Total landing rate (%)” value was found to be 53.3%, the “Number of landings total” value is given as 12, the “Number of landings 1 min” value is 2 and the “Number of landings 2 min” value turned out to be 4. Also, the “Number of landings 3 min” value in test [3] came to 6.

As for `O=C1CCC2CCCCC2O1` (centres unmarked) [Octahydro-2H-1-benzopyran-2-one, octahydro-2H-1-benzopyran-2-one], the pest or weed control at 0.1 % in test [2] was 93.3%.

Regarding `CCC(C)(O)CCc1ccccc1` (centres unmarked) [3-Methyl-1-phenyl-3-pentanol, 3-methyl-1-phenyl-3-pentanol], in test [2], the pest or weed control at 0.1 % is 69.3%.

Consider `COC(OC)C(C)c1ccccc1` (centres unmarked) [2-Phenylpropionaldehyde dimethyl acetal, 2-phenylpropionaldehyde dimethyl acetal], for which the pest or weed control at 0.1 % in test [2] was determined as 66.8%.

In the case of `CCCCC(CC)C(=O)OCC` (centres unmarked) [Ethyl 2-ethylhexanoate, ethyl 2-ethylhexanoate], in test [1], the pest or weed control at 1 % stood at 51%.

Take `CC1=CC(C)C(C=O)C(C)C1` (centres unmarked) [Isocyclocitral, isocyclocitral]: the “Inhibition of carbon dioxide response (%)” value in test [1] was found to be 61%.

`CC1C(=O)c2ccccc2C1(C)C` (centres unmarked) [2,3,3-Trimethyl-2H-inden-1-one, 2,3,3-trimethyl-2H-inden-1-one]: the pest or weed control at 0.1 % in test [2] was found to be 76.2%.

Turning to `CCCCCC1=C(C)CCC1=O` [3-Methyl-2-pentylcyclopent-2-en-1-one, 3-methyl-2-pentylcyclopent-2-en-1-one], the pest or weed control at 1 % in test [1] amounted to 68%.

On to `CC1=CC(C)C(CO)C(C)C1` (centres unmarked) [2,4,6-Trimethyl-3-cyclohexene-1-methanol, 2,4,6-trimethyl-3-cyclohexene-1-methanol], for which, in test [1], the pest or weed control at 1 % amounted to 61%.

`CCOC(=O)Cc1ccccc1` [Ethyl phenylacetate, ethyl phenylacetate]: the pest or weed control at 1 % in test [1] is 79%.

In the case of `COC(C)(C)CCCC(C)CC=O` (centres unmarked) [7-Methoxy-3,7-dimethyloctanal, 7-methoxy-3,7-dimethyloctanal], the pest or weed control at 0.1 % in test [2] was 72.4%.

As for `CCCc1ccc(O)c(OC)c1` [2-Methoxy-4-propylphenol, 2-methoxy-4-propylphenol], the pest or weed control at 1 % in test [1] turned out to be 95%.

`CCCCCCCCCCO` [1-Decanol, 1-decanol]: in test [1], the pest or weed control at 1 % was 54%.

Source of the values: US10779531B2, “Insect repellent” (Kao Corporation, priority 2015, dated 2020).
